In PMC10779116, “Madurastatins with Imidazolidinone Rings: Natural Products or Side-Reaction Products from Extraction Solvents?” (International Journal of Molecular Sciences, 2023):

System: L. donovani MHOM/ET/67/HU3
Assay: Antiparasitic activity on L. donovani: image-based intracellular assay in infected differentiated THP-1 cells
Assay type: cell-based, Leishmania donovani
Details: L. donovani in PMA-differentiated THP-1 host cells, 3 days; number of infected host cells, normalized by controls
Description: All compounds isolated were tested against Trypanosoma cruzi and Leishmania donovani, using the liquid microdilution method. Madurastatins were not active against L. donovani at the highest concentration tested, showing IC50 values higher than 50 µM.
(§1) Human monocyte cell line THP-1 (ATCC TIB-202) was purchased from the American Type Culture Collection (ATCC). The assay for activity against L. donovani was performed as previously described. L. donovani MHOM/ET/67/HU3 was cultivated as promastigotes at 28 °C in M199 (Sigma-Aldrich, St. Louis, MO, USA) with 40 mM HEPES, 0.1 mM adenine, 0.0001% biotin, and 4.62 mM NaHCO3, supplemented with 10% heat-inactivated FBS and incubated 6 days before infection to enrich the proportion of metacyclic promastigotes. THP-1 was cultivated in RPMI medium (Thermo Fisher Scientific) supplemented with 10% heat-inactivated FBS and differentiated with 50 ng/mL of phorbol 12-myristate 13-acetate (PMA, Sigma-Aldrich) before infection. Purified L. donovani parasites were seeded with 1:20 infection ratio in 384-well plates and incubated for 24 h, then followed by the treatment of 4 μM amphotericin B (Sigma-Aldrich) as positive control, 0.5% DMSO as negative control, and tested samples. After additional incubation for 3 days at 37 °C, 5% CO2, the cells and parasites were fixed with 4% PFA and stained with 5 μM DRAQ5. Fluorescent images were acquired from each well using an automated confocal microscope (Operetta CLS) with a […] laser at 20× objective.
(§2) The acquired images were analyzed with Columbus software (v2.3) (PerkinElmer) to quantify cell numbers, parasites numbers, and infection ratio. Data were normalized by positive and negative controls. The activity of the tested samples was determined in terms of IC50 and CC50 calculated with XLfit software (v5) (IDBS, Boston, MA, USA). The quality of the assay data was assessed with Z’ factor, assay windows, and CV [37].

Row | SMILES | Inhibition norm. inf. ratio IC50
1 | CC1N(C)C(CCCN(O)C(=O)CCNC(=O)CNC(=O)C2COC(c3ccccc3O)=N2)C(=O)N1C1CCCN(O)C1=O (stereo not drawn) [D1 (4), madurastatin D1] | >50 µM
2 | CNC(CCCN(O)C(=O)CCNC(=O)CNC(=O)C1COC(c2ccccc2O)=N1)C(=O)NC1CCCN(O)C1=O (stereo not drawn) [C1 (1), madurastatin C1] | >50 µM
3 | CN1[C@@H](CCCN(O)C(=O)CCNC(=O)CNC(=O)[C@@H](CO)NC(=O)c2ccccc2O)C(=O)N([C@H]2CCCN(O)C2=O)C1(C)C [H2 (2), madurastatin H2] | >50 µM
4 | C[C@@H]1N(C)[C@@H](CCCN(O)C(=O)CCNC(=O)CNC(=O)[C@H]2COC(c3ccccc3O)=N2)C(=O)N1[C@H]1CCCN(O)C1=O [33-epi D1 (3), 33-epi-madurastatin D1] | >50 µM
5 | CN1C(CCCN(O)C(=O)CCNC(=O)CNC(=O)C2COC(c3ccccc3O)=N2)C(=O)N(C2CCCN(O)C2=O)C1(C)C (stereo not drawn) [D2 (5), madurastatin D2] | >50 µM

Same assay, conditions: Leishmania donovani, 72 h; L. donovani in PMA-differentiated THP-1 host cells, 3 days; number of parasites in host cell cytoplasm, normalized by controls; read-out: Inhibition norm. para. num. IC50

Row | SMILES | IC50
6 | CC1N(C)C(CCCN(O)C(=O)CCNC(=O)CNC(=O)C2COC(c3ccccc3O)=N2)C(=O)N1C1CCCN(O)C1=O (stereo not drawn) [D1 (4), madurastatin D1] | > 50 µM
7 | CNC(CCCN(O)C(=O)CCNC(=O)CNC(=O)C1COC(c2ccccc2O)=N1)C(=O)NC1CCCN(O)C1=O (stereo not drawn) [C1 (1), madurastatin C1] | > 50 µM
8 | CN1[C@@H](CCCN(O)C(=O)CCNC(=O)CNC(=O)[C@@H](CO)NC(=O)c2ccccc2O)C(=O)N([C@H]2CCCN(O)C2=O)C1(C)C [H2 (2), madurastatin H2] | > 50 µM
9 | C[C@@H]1N(C)[C@@H](CCCN(O)C(=O)CCNC(=O)CNC(=O)[C@H]2COC(c3ccccc3O)=N2)C(=O)N1[C@H]1CCCN(O)C1=O [33-epi D1 (3), 33-epi-madurastatin D1] | > 50 µM
10 | CN1C(CCCN(O)C(=O)CCNC(=O)CNC(=O)C2COC(c3ccccc3O)=N2)C(=O)N(C2CCCN(O)C2=O)C1(C)C (stereo not drawn) [D2 (5), madurastatin D2] | > 50 µM

System: THP-1 cells
Assay: Host cell cytotoxicity (cell ratio) in the L. donovani assay
Assay type: cell-based, Human
Details: number of THP-1 host cells in L. donovani assay, 3 days
Description: as §1, §2

Row | SMILES | Cell ratio (%) CC50
11 | CC1N(C)C(CCCN(O)C(=O)CCNC(=O)CNC(=O)C2COC(c3ccccc3O)=N2)C(=O)N1C1CCCN(O)C1=O (stereo not drawn) [D1 (4), madurastatin D1] | >50 µM
12 | CNC(CCCN(O)C(=O)CCNC(=O)CNC(=O)C1COC(c2ccccc2O)=N1)C(=O)NC1CCCN(O)C1=O (stereo not drawn) [C1 (1), madurastatin C1] | >50 µM
13 | CN1[C@@H](CCCN(O)C(=O)CCNC(=O)CNC(=O)[C@@H](CO)NC(=O)c2ccccc2O)C(=O)N([C@H]2CCCN(O)C2=O)C1(C)C [H2 (2), madurastatin H2] | >50 µM
14 | C[C@@H]1N(C)[C@@H](CCCN(O)C(=O)CCNC(=O)CNC(=O)[C@H]2COC(c3ccccc3O)=N2)C(=O)N1[C@H]1CCCN(O)C1=O [33-epi D1 (3), 33-epi-madurastatin D1] | >50 µM
15 | CN1C(CCCN(O)C(=O)CCNC(=O)CNC(=O)C2COC(c3ccccc3O)=N2)C(=O)N(C2CCCN(O)C2=O)C1(C)C (stereo not drawn) [D2 (5), madurastatin D2] | >50 µM

System: U2OS cells
Assay: Host cell cytotoxicity (cell ratio) in the T. cruzi assay
Assay type: cell-based, Human
Details: number of U2OS host cells in T. cruzi assay, 3 days
Text: (§3) Human osteosarcoma cell line U2OS (ATCC HTB-96) and rhesus monkey kidney epithelial cell LLM-MK2 (ATCC CCL-7) were purchased from the American Type Culture Collection (ATCC, Manassas, VA, USA). T. cruzi Y strain was maintained as tissue culture trypomastigotes (TCT) by infection to LLC-MK2 cell line. The U2OS human cell was cultivated in DMEM-high-glucose media supplemented with 10% heat-inactivated fetal bovine serum (FBS, Thermo Fisher Scientific, Waltham, MA, USA). To visualize amastigote replication, U2OS cells were seeded in a 384-well plate (4 × 10^3 cells/well) and infected with 5 × 10^4 TCT parasites in DMEM-low-glucose media supplemented with 2% heat-inactivated FBS as previously described. The reference drug 400 μM of benznidazole (positive control), 0.5% DMSO (negative control), and the tested samples were treated on the day of assay and then incubated for 3 days at 37 °C, 5% CO2. After incubation was completed, the cells and parasites were fixed with 4% paraformaldehyde (PFA), and the DNA was stained with 5 μM DRAQ5 (Biostatus, Shepshed, Leicestershire, UK) followed by image acquisition using an automated confocal microscope (Operetta CLS, PerkinElmer, Waltham, MA, USA) with a […] laser at 20× objective.
as §2

Row | SMILES | Cell ratio (%) CC50
16 | CC1N(C)C(CCCN(O)C(=O)CCNC(=O)CNC(=O)C2COC(c3ccccc3O)=N2)C(=O)N1C1CCCN(O)C1=O (stereo not drawn) [D1 (4), madurastatin D1] | 46.77 µM
17 | CNC(CCCN(O)C(=O)CCNC(=O)CNC(=O)C1COC(c2ccccc2O)=N1)C(=O)NC1CCCN(O)C1=O (stereo not drawn) [C1 (1), madurastatin C1] | >50 µM
18 | CN1[C@@H](CCCN(O)C(=O)CCNC(=O)CNC(=O)[C@@H](CO)NC(=O)c2ccccc2O)C(=O)N([C@H]2CCCN(O)C2=O)C1(C)C [H2 (2), madurastatin H2] | >50 µM
19 | C[C@@H]1N(C)[C@@H](CCCN(O)C(=O)CCNC(=O)CNC(=O)[C@H]2COC(c3ccccc3O)=N2)C(=O)N1[C@H]1CCCN(O)C1=O [33-epi D1 (3), 33-epi-madurastatin D1] | >50 µM
20 | CN1C(CCCN(O)C(=O)CCNC(=O)CNC(=O)C2COC(c3ccccc3O)=N2)C(=O)N(C2CCCN(O)C2=O)C1(C)C (stereo not drawn) [D2 (5), madurastatin D2] | 24.74 µM

System: T. cruzi Y strain
Assay: Antiparasitic activity on T. cruzi: image-based intracellular amastigote assay in infected U2OS cells
Assay type: cell-based, Trypanosoma cruzi
Details: T. cruzi in U2OS host cells, 3 days; number of infected host cells, normalized by DMSO and benznidazole controls
Description: as §3, with “All compounds isolated were tested against Trypanosoma cruzi and Leishmania donovani, using the liquid microdilution method. Madurastatins were not active against L. donovani at the highest concentration tested, showing IC50 values higher than 50 µM. […] Human” for “Human”, “objective. The acquired images were analyzed with Columbus software (v2.3) (PerkinElmer) to quantify cell numbers, parasites numbers, and infection ratio. Data were normalized by positive and negative controls. The activity of the tested samples was determined in terms of IC50 and CC50 calculated with XLfit software (v5) (IDBS, Boston, MA, USA). The quality of the assay data was assessed with Z’ factor, assay windows, and CV [37].” for “objective.”

Row | SMILES | Inhibition norm. inf. ratio IC50
21 | CC1N(C)C(CCCN(O)C(=O)CCNC(=O)CNC(=O)C2COC(c3ccccc3O)=N2)C(=O)N1C1CCCN(O)C1=O (stereo not drawn) [D1 (4), madurastatin D1] | >50 µM
22 | CNC(CCCN(O)C(=O)CCNC(=O)CNC(=O)C1COC(c2ccccc2O)=N1)C(=O)NC1CCCN(O)C1=O (stereo not drawn) [C1 (1), madurastatin C1] | >50 µM
23 | CN1[C@@H](CCCN(O)C(=O)CCNC(=O)CNC(=O)[C@@H](CO)NC(=O)c2ccccc2O)C(=O)N([C@H]2CCCN(O)C2=O)C1(C)C [H2 (2), madurastatin H2] | >50 µM
24 | C[C@@H]1N(C)[C@@H](CCCN(O)C(=O)CCNC(=O)CNC(=O)[C@H]2COC(c3ccccc3O)=N2)C(=O)N1[C@H]1CCCN(O)C1=O [33-epi D1 (3), 33-epi-madurastatin D1] | >50 µM
25 | CN1C(CCCN(O)C(=O)CCNC(=O)CNC(=O)C2COC(c3ccccc3O)=N2)C(=O)N(C2CCCN(O)C2=O)C1(C)C (stereo not drawn) [D2 (5), madurastatin D2] | >50 µM

Same assay, conditions: Trypanosoma cruzi, 72 h; T. cruzi in U2OS host cells, 3 days; number of parasites in host cell cytoplasm, normalized by DMSO and benznidazole controls; read-out: Inhibition norm. para. num. IC50

Row | SMILES | IC50
26 | CC1N(C)C(CCCN(O)C(=O)CCNC(=O)CNC(=O)C2COC(c3ccccc3O)=N2)C(=O)N1C1CCCN(O)C1=O (stereo not drawn) [D1 (4), madurastatin D1] | 27.2 µM
27 | CNC(CCCN(O)C(=O)CCNC(=O)CNC(=O)C1COC(c2ccccc2O)=N1)C(=O)NC1CCCN(O)C1=O (stereo not drawn) [C1 (1), madurastatin C1] | 30.8 µM
28 | CN1[C@@H](CCCN(O)C(=O)CCNC(=O)CNC(=O)[C@@H](CO)NC(=O)c2ccccc2O)C(=O)N([C@H]2CCCN(O)C2=O)C1(C)C [H2 (2), madurastatin H2] | > 50 µM
29 | C[C@@H]1N(C)[C@@H](CCCN(O)C(=O)CCNC(=O)CNC(=O)[C@H]2COC(c3ccccc3O)=N2)C(=O)N1[C@H]1CCCN(O)C1=O [33-epi D1 (3), 33-epi-madurastatin D1] | 46.1 µM
30 | CN1C(CCCN(O)C(=O)CCNC(=O)CNC(=O)C2COC(c3ccccc3O)=N2)C(=O)N(C2CCCN(O)C2=O)C1(C)C (stereo not drawn) [D2 (5), madurastatin D2] | 8.93 µM
